Measurements reported in patent US20050175545A1, “Formulation for inhalation comprising a glucocorticoid and a beta 2-adrenoreceptor agonist” (priority 2002, published 2005).

What was measured:
rat hepatocytes = assay: In vitro metabolism in rat hepatocytes; type: in vitro ADME; details: 17-β carboxylic acid (X) only significant metabolite
[1] = Pharmacokinetics after intra-tracheal dry powder dosing in the pig; type: in vivo; details: intra-tracheal 1 mg; lower limits of quantitation 10 (Example 1) and 20 pg/mL (fluticasone propionate)
Protocol: Serial blood samples were taken for up to 8h following dosing.

lung eosinophilia = assay: ovalbumin sensitised Brown Norway rat eosinophilia model; type: in vivo; details: intra-tracheal suspension in saline 30 min prior to ovalbumin challenge
Protocol: Pharmacological activity in vivo was assessed in an ovalbumin sensitised Brown Norway rat eosinophilia model. This model is designed to mimic allergen induced lung eosinophilia, a major component of lung inflammation in asthma.

human hepatocytes = assay: In vitro metabolism in human hepatocytes; type: in vitro ADME; details: 17-β carboxylic acid (X) only significant metabolite
[2] = Pharmacokinetics after intravenous administration in the anaesthetised pig; type: in vivo; details: for clearance (comparison, in words): intravenous 0.1 mg/kg; for pharmacokinetic parameters (comparison, in words): intravenous mixture of the two compounds at 0.1 mg/kg
From the text: The clearance of these two glucocorticoids is similar is this experimental pig model.

[3] = Pharmacokinetics after intravenous and oral dosing in rats; details: in vivo data in the rat
NFκB = NFκB firefly luciferase reporter stimulated with TNFα, transrepression; type: cell-based; details: Homo sapiens, A549, read-out: Transrepression (NFκB) ED50 (nM)
From the text: The glucocorticoid receptor (GR) can function in at least two distinct mechanisms, by upregulating gene expression through the direct binding of GR to specific sequences in gene promoters, and by downregulating gene expression that is being driven by other transcription factors (such as NFκB or AP-1) through their direct interaction with GR.
The first cell line contains the firefly luciferase reporter gene under the control of a synthetic promoter that specifically responds to activation of the transcription factor NFκB when stimulated with TNFα. The second cell line contains the renilla luciferase reporter gene under the control of a synthetic promotor that comprises 3 copies of the consensus glucocorticoid response element, and which responds to direct stimulation by glucocorticoids. Simultaneous measurement of transactivation and transrepression was conducted by mixing the two cell lines in a 1:1 ratio in 96 well plate (40,000 cells per well) and growing overnight at 37° C. Test compounds were dissolved in DMSO, and added to the cells at a final DMSO concentration of 0.7%. After incubation for 1 h 0.5 ng/ml TNFα (R&D Systems) was added and after a further 15 hours at 37° C., the levels of firefly and renilla luciferase were measured using the Packard Firelite kit following the manufacturers' directions. Dose response curves were constructed from which EC50 values were determined.

## C[C@@H]1CC2C3C[C@H](F)C4=CC(=O)C=C[C@]4(C)[C@@]3(F)[C@@H](O)C[C@]2(C)[C@@]1(OC(=O)c1ccco1)C(=O)SCF (stereo partly drawn) [Example 1, 6α,9α-Difluoro-17α-[(2-furanylcarbonyl)oxy]-11β-hydroxy-16α-methyl-3-oxo-androsta-1,4-diene-17β-carbothioic acid S-fluoromethyl ester]
Rat hepatocytes
  manner of metabolism: metabolised in an identical manner to fluticasone propionate
[1]
  time after dosing up to which quantifiable in plasma: up to 2 hours
Lung eosinophilia
  inhibition of lung eosinophilia (dose relation, in words): dose dependant inhibition
Human hepatocytes
  manner of metabolism: metabolised in an identical manner to fluticasone propionate
[2]
  clearance (comparison, in words): similar
  pharmacokinetic parameters (comparison, in words): the same
[3]
  plasma clearance (in words): approaching hepatic blood flow

## CC1CC2C3CC(F)C4=CC(=O)C=CC4(C)C3(F)C(O)CC2(C)C1(OC(=O)c1ccsc1)C(=O)SCF (stereo not drawn) [Example 4, 6α,9α-Difluoro-11β-hydroxy-16α-methyl-3-oxo-17α-[(3-thienylcarbonyl)oxy]-androsta-1,4-diene-17β-carbothioic acid S-fluoromethyl ester]
[3]
  plasma clearance (in words): approaching hepatic blood flow

## Cc1ccoc1C(=O)OC1(C(=O)SCF)C(C)CC2C3CC(F)C4=CC(=O)C=CC4(C)C3(F)C(O)CC21C (stereo not drawn) [Example 19, 6α,9α-Difluoro-11β-hydroxy-16α-methyl-17α-[(3-methylfuran-2-carbonyl)oxy]-3-oxo-androsta-1,4-diene-17β-carbothioic acid S-fluoromethyl ester]
[3]
  plasma clearance (in words): approaching hepatic blood flow

## Cc1cc(C(=O)OC2(C(=O)SCF)C(C)CC3C4CC(F)C5=CC(=O)C=CC5(C)C4(F)C(O)CC32C)no1 (stereo not drawn) [Example 24, 6α,9α-Difluoro-11β-hydroxy-16α-methyl-17α-[(5-methylisoxazole-3-carbonyl)oxy]-3-oxo-androsta-1,4-diene-17β-carbothioic acid S-fluoromethyl ester]
[3]
  plasma clearance (in words): approaching hepatic blood flow

## Cc1cc(C(=O)OC2(C(=O)SCF)C(C)CC3C4CC(F)C5=CC(=O)C=CC5(C)C4(F)C(O)CC32C)on1 (stereo not drawn) [Example 25, 6α,9α-Difluoro-11β-hydroxy-16α-methyl-17α-[(3-methylisoxazole-5-carbonyl)oxy]-3-oxo-androsta-1,4-diene-17β-carbothioic acid S-fluoromethyl ester]
[3]
  plasma clearance (in words): approaching hepatic blood flow

## CC1CC2C3CC(F)C4=CC(=O)C=CC4(C)C3(F)C(O)CC2(C)C1(OC(=O)c1ccon1)C(=O)SCF (stereo not drawn) [Example 28, 6α,9α-Difluoro-11β-hydroxy-17α-[(isoxazole-3-carbonyl)oxy]-16α-methyl-3-oxo-androsta-1,4-diene-17β-carbothloic acid S-fluoromethyl ester]
[3]
  plasma clearance (in words): approaching hepatic blood flow

## CCC(=O)O[C@]1(C(=O)SCF)[C@H](C)C[C@H]2[C@@H]3C[C@H](F)C4=CC(=O)C=C[C@]4(C)[C@@]3(F)[C@@H](O)C[C@@]21C [Fluticasone propionate, 6α,9α-Difluoro-17α-(1-oxopropoxy)-11β-hydroxy-16α-methyl-3-oxo-androsta-1,4-diene-17β-carbothioic acid S-fluoromethyl ester, reference compound]
[1]
  time after dosing up to which quantifiable in plasma: up to 8 hours
[2]
  clearance (comparison, in words): similar
  pharmacokinetic parameters (comparison, in words): the same

## C[C@@H]1C[C@H]2[C@@H]3C[C@H](F)C4=CC(=O)C=C[C@]4(C)[C@@]3(F)[C@@H](O)C[C@]2(C)[C@@]1(OC(=O)c1ccco1)C(=O)O [Metabolite (X)]
NFκB
  EC50: > 1000 nM
